Activity calls are given as the source filed them. No cut-off for these calls is given here.
Assays:
[1] = biological target: T1, Glucagon-like peptide 1 receptor (Homo sapiens, UniProt P43220); assay: Activation of GLP1R (unknown origin) CRE-bla expressed in CHO-K1 cells assessed as receptor potency incubated for 1 hrs by time resolved fluorescence resonance energy transfer immunoassay; type: functional, cell-based
[2] = biological target: T1, Glucagon-like peptide 1 receptor; assay: Binding affinity to GLP1R (unknown origin) assessed as equilibrium constant by surface plasmon resonance analysis; details: filed as activator
Mus musculus [3] = assay: Hypoglycemic effect in intragastric starch treated mouse assessed as reduction in blood glucose level at 30 nmol/kg, sc measured at 1.5 hrs; type: functional, organism-based
[4] = biological target: T1, Glucagon-like peptide 1 receptor; assay: Binding affinity to GLP1R (unknown origin) assessed as binding rate constant by surface plasmon resonance analysis; details: filed as activator
Mus musculus [5] = assay: Hypoglycemic effect in intragastric starch treated mouse assessed as decrease in glucose AUC at 30 nmol/kg, sc measured up to 24 hrs; type: functional, organism-based; details: time hrs <=24
Mus musculus [6] = assay: Hypoglycemic effect in intragastric starch treated mouse assessed as reduction in blood glucose level at 30 nmol/kg, sc measured up to 24 hrs; type: functional, organism-based; details: time hrs <=24
[7] = Toxicity in mouse assessed as change in body weight at 30 nmol/kg, sc measured at 1.5 hrs; type: organism-based; details: in vivo
Albumin = Albumin (Homo sapiens, UniProt P02768); assay: Binding affinity to albumin (unknown origin) after 8 hrs by HPLC analysis; type: ADME; set-up: concentration or dose not given beside the values; details: isolated protein
[8] = biological target: T1, Glucagon-like peptide 1 receptor; assay: Binding affinity to GLP1R (unknown origin) assessed as dissociation rate constant by surface plasmon resonance analysis

T1 sequence (P43220 whole entry): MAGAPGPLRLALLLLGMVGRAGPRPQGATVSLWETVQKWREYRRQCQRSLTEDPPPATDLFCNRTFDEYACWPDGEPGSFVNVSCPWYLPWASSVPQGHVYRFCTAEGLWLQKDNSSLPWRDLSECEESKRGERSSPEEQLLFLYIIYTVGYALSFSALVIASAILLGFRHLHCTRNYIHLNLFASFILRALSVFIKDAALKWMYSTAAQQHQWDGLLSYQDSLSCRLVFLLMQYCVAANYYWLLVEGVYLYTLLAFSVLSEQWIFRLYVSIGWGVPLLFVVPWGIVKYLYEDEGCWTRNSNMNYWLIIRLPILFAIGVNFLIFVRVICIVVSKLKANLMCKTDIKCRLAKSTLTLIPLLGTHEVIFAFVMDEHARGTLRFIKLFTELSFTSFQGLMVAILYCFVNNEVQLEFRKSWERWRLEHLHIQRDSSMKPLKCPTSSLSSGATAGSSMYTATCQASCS
Albumin, sequence (P02768 whole entry): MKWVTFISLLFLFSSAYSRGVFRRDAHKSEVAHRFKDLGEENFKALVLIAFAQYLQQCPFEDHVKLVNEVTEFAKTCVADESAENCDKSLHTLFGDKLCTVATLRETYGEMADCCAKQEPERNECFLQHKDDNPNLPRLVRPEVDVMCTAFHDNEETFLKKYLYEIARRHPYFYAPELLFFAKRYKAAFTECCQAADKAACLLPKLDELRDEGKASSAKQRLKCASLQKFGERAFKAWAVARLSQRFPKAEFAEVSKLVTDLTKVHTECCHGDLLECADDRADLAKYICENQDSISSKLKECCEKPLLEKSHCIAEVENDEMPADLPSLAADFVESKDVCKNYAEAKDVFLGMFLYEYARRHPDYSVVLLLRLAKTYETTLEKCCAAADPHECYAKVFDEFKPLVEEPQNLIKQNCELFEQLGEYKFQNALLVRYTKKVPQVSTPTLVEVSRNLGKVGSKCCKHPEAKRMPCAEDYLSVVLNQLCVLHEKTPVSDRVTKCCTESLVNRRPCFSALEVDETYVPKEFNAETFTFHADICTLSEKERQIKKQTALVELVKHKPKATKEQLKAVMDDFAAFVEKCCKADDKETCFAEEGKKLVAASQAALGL

| EC50 [1] [pM] | Ke [2] | Ka [4] | Activity (Albumin) [%] | Dissociation rate constant (koff) [8] | Molecule | Activity (Mus musculus [3]) | Activity (Mus musculus [5]) | Activity (Mus musculus [6]) | Activity [7] |
| --- | --- | --- | --- | --- | --- | --- | --- | --- | --- |
| 72.3 |  |  |  |  | CCCCCCCCCCCCCCCC(=O)N[C@@H](CCC(=O)NCCCC[C@H](NC(=O)CC[C@H](NC(=O)CCCCCCCCCCCCCCC)C(=O)O)C(=O)NCCOCCOCC(=O)O)C(=O)O |  |  |  |  |
|  | 1.33 10^-6M | 9.24 10^4/Ms |  |  | SEMAGLUTIDE [listing 1 of 2 here] | Active | Active | Active |  |
| 1.6 |  |  |  |  | CCCCCCCCCCCCCC(=O)N[C@@H](CCC(=O)NCCCC[C@H](NC(=O)CC[C@H](NC(=O)CCCCCCCCCCCCC)C(=O)O)C(=O)NCCOCCOCC(=O)NCCOCCOCC(=O)NCCOCCOCC(=O)O)C(=O)O | Active | Active | Active | Toxic |
|  |  |  | > 99 |  | SEMAGLUTIDE [listing 2 of 2 here] |  |  |  | Toxic |
| 9.6 |  |  |  |  | CCCCCCCCCCCCCC(=O)N[C@@H](CCC(=O)NCCCC[C@H](NC(=O)CC[C@H](NC(=O)CCCCCCCCCCCCC)C(=O)O)C(=O)NCCOCCOCC(=O)O)C(=O)O | Active |  | Active | Toxic |
| 6.6 |  |  |  |  | CCCCCCCCCCCCCC(=O)N[C@@H](CCC(=O)NCCCC[C@H](NC(=O)CC[C@H](NC(=O)CCCCCCCCCCCCC)C(=O)O)C(=O)NCCOCCOCC(=O)NCCOCCOCC(=O)O)C(=O)O |  | Active |  | Toxic |
| 132 |  |  | 86 |  | CCCCCCCCCC(=O)N[C@@H](CCC(=O)NCCCC[C@H](NC(=O)CC[C@H](NC(=O)CCCCCCCCC)C(=O)O)C(=O)NCCOCCOCC(=O)NCCOCCOCC(=O)NCCOCCOCC(=O)O)C(=O)O |  |  |  |  |
| 5.1 | 7.25 10^-6M | 3.26 10^3/M/s | 91.6 | 2.37 10^-2/s | CCCCCCCCCCCC(=O)N[C@@H](CCC(=O)NCCCC[C@H](NC(=O)CC[C@H](NC(=O)CCCCCCCCCCC)C(=O)O)C(=O)NCCOCCOCC(=O)NCCOCCOCC(=O)NCCOCCOCC(=O)O)C(=O)O | Active | Active | Active | Toxic |
| 200 |  |  | 90.2 |  | CCCCCCCCCC(=O)N[C@@H](CCC(=O)NCCCC[C@H](NC(=O)CC[C@H](NC(=O)CCCCCCCCC)C(=O)O)C(=O)NCCOCCOCC(=O)NCCOCCOCC(=O)O)C(=O)O |  |  |  |  |
| 143 |  |  | 94.5 |  | CCCCCCCCCC(=O)N[C@@H](CCC(=O)NCCCC[C@H](NC(=O)CC[C@H](NC(=O)CCCCCCCCC)C(=O)O)C(=O)NCCOCCOCC(=O)O)C(=O)O |  |  |  |  |
| 10.1 | 1.44 10^-5M | 5.97 10^2/Ms | 94.3 | 8.57 10^-3/s | CCCCCCCCCCCC(=O)N[C@@H](CCC(=O)NCCCC[C@H](NC(=O)CC[C@H](NC(=O)CCCCCCCCCCC)C(=O)O)C(=O)NCCOCCOCC(=O)NCCOCCOCC(=O)O)C(=O)O | Active | Active | Active | Toxic |
| 78.8 |  |  |  |  | CCCCCCCCCCCCCCCC(=O)N[C@@H](CCC(=O)NCCCC[C@H](NC(=O)CC[C@H](NC(=O)CCCCCCCCCCCCCCC)C(=O)O)C(=O)NCCOCCOCC(=O)NCCOCCOCC(=O)O)C(=O)O |  |  |  |  |
| 14.2 | 5.85 10^-6M | 1.11 10^3/M/s | > 99 | 6.5 10^-3/s | CCCCCCCCCCCC(=O)N[C@@H](CCC(=O)NCCCC[C@H](NC(=O)CC[C@H](NC(=O)CCCCCCCCCCC)C(=O)O)C(=O)NCCOCCOCC(=O)O)C(=O)O | Active | Active | Active | Toxic |
| 27.4 |  |  |  |  | CCCCCCCCCCCCCCCC(=O)N[C@@H](CCC(=O)NCCCC[C@H](NC(=O)CC[C@H](NC(=O)CCCCCCCCCCCCCCC)C(=O)O)C(=O)NCCOCCOCC(=O)NCCOCCOCC(=O)NCCOCCOCC(=O)O)C(=O)O |  |  |  |  |

— ChEMBL document CHEMBL4823284, “Design, synthesis and biological evaluation of double fatty chain-modified glucagon-like peptide-1 conjugates” (Bioorg Med Chem, 2021)
